The source made the active and inactive calls.
Legend:
[1] = HepG2 cell cytotoxicity, dose response, cytotoxicity control, cherry-picked samples (AID 1159577); type: functional, cell-based
[2] = inhibitors of intracellular T. cruzi replication, confirmation, NIH3T3 host cells, beta-gal luminescence (AID 2044); type: functional, cell-based;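 further: intracellular parasites grown in NIH/3T3 mouse fibroblasts as host cells; luminescent beta-galactosidase reporter signal from transgenic T. cruzi replicating inside host cells; inhibitors lower the luminescence signal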
[3] = cells
[4] = cytotoxicity toward NIH3T3 fibroblasts, dose response, counter-screen, cell-based, ATP luminescence, mouse fibroblasts (AID 2010); type: functional;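 further: cells exposed to compound for about 90 hours before reading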
[5] = target: Cytochrome P450 2C19 (Homo sapiens, UniProt P33261); experiment: Cytochrome panel assay with activity outcomes. Panel member name: p450-cyp2c19 Compounds with AC50 equal or less than 10 uM are considered active; type: functional; conditions: read-out: AC50
Sequence of Cytochrome P450 2C19 (P33261 whole entry): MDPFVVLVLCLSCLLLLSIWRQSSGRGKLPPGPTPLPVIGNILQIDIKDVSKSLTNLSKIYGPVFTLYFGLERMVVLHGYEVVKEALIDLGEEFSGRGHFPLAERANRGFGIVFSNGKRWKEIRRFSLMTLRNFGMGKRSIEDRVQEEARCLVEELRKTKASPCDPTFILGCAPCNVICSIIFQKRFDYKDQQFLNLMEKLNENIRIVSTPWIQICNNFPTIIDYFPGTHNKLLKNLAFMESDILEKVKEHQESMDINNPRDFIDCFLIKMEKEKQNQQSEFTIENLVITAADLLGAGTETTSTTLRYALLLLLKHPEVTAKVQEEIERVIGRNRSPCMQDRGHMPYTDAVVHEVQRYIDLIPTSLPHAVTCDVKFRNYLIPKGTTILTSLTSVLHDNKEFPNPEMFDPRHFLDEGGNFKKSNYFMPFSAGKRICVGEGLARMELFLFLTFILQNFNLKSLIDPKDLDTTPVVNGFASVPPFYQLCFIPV

[6] = target: Cytochrome P450 3A4 (Homo sapiens, UniProt P08684);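 further: CYP3A4 tested as one member of a cytochrome P450 panel screen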
Sequence of Cytochrome P450 3A4 (P08684 whole entry): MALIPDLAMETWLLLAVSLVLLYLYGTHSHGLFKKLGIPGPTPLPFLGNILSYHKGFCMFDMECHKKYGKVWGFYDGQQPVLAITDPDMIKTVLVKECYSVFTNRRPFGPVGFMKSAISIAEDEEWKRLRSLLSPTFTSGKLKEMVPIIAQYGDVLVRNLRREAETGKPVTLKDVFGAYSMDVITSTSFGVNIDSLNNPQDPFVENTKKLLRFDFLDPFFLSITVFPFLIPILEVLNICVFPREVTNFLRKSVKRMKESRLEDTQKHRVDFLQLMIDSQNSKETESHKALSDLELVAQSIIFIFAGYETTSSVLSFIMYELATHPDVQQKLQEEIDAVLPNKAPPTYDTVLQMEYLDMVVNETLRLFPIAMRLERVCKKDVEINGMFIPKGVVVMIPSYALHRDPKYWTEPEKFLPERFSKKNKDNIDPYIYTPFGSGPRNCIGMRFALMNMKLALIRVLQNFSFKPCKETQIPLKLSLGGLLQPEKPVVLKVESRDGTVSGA

[7] = tested on: Vero; experiment: host cell cytotoxicity of antiviral hits, dose response, cytotoxicity control for West Nile virus antiviral project, secondary assay (AID 1650); type: functional; conditions: Chlorocebus sabaeus
[8] = target: T1, Mannose-6-phosphate isomerase (Homo sapiens, UniProt P34949); experiment: human PMI inhibitors, high substrate, primary screen, biochemical, fluorescence intensity, high mannose 6-phosphate (AID 1220)
T1 sequence (P34949 whole entry): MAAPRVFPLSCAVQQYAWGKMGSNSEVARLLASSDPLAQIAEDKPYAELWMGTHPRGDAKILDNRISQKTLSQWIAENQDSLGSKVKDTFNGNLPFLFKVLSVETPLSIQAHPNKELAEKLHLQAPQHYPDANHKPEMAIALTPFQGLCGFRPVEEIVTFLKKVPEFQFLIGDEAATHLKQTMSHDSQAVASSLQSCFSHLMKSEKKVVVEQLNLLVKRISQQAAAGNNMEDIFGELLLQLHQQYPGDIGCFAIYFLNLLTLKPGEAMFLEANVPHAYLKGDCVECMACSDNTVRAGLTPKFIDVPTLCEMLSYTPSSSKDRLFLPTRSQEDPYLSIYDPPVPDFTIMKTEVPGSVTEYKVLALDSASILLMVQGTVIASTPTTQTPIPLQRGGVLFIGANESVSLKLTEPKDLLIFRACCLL

[9] = cytotoxicity in KRAS-transformed pancreatic duct cells, primary screen, cell-based, fluorescence, HTS (AID 431); type: functional; conditions: Homo sapiens;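 further: cell line used: HPDE-C7K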
[10] = cytotoxicity in HPDE-C7 cells, cell-based, fluorescence, HTS (AID 430); type: functional; conditions: Homo sapiens
[11] = Jurkat T cell cytotoxicity, dose response, cytotoxicity control for P. falciparum gametocyte viability project, luminescence (AID 1117277); type: functional, cell-based;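 further: potency reflects loss of cellular ATP meaning fewer viable cells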
[12] = P. falciparum late gametocyte killing, dose response, luminescence (AID 1117278); type: functional, cell-based;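 further: gametocytes exposed to compound for 24 hours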
[13] = inhibitors of Vif binding to APOBEC3G peptide, primary screen, biochemical, TR-FRET, GST-Vif 1-94, biotin-A3G peptide, dose response retest (AID 1117319); type: functional;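 further: TR-FRET signal of purified GST-Vif binding a biotinylated A3G peptide; inhibitors lower the FRET signal by blocking Vif and A3G binding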
[14] = target: Ephrin type-A receptor 4 (Mus musculus, UniProt Q03137); experiment: inhibitors of EphA4 binding to KYL peptide, primary screen, biochemical, colorimetric, mouse EphA4 (AID 689); type: functional
Sequence of Ephrin type-A receptor 4 (Q03137 whole entry): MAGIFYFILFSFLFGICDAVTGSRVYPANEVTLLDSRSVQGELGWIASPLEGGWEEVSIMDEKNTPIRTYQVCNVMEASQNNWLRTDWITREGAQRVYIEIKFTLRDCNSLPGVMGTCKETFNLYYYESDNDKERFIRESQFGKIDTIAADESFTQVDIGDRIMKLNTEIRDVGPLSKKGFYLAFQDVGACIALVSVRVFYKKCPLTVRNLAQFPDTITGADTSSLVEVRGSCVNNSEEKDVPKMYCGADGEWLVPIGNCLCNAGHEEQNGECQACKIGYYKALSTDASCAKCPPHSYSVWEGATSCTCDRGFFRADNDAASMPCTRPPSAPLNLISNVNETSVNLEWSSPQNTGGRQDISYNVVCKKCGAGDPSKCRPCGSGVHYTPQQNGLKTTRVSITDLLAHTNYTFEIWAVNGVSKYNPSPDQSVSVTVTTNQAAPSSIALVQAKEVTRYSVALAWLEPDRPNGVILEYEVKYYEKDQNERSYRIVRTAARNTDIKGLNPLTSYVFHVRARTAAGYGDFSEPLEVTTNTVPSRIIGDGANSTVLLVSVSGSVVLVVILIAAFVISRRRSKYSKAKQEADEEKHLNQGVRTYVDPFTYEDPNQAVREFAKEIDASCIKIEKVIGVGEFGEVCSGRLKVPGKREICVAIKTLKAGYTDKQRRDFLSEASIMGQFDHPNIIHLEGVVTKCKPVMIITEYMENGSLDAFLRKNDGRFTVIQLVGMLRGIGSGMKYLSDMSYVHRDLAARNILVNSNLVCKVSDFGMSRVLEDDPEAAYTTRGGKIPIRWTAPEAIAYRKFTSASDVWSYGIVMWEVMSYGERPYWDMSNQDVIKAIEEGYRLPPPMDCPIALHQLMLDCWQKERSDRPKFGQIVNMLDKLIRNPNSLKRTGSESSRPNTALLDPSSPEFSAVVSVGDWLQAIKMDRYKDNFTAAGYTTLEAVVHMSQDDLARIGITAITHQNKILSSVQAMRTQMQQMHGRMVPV

[15] = target: T2, Alkaline phosphatase, tissue-nonspecific isozyme (Homo sapiens, UniProt P05186); experiment: TNAP enzyme activators, dose response, selectivity assay for human IAP activator project, biochemical, TNAP isozyme, human IAP uHTS hits (AID 488886); type: functional;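 further: potency of compounds raising TNAP activity as a selectivity check on IAP activators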
T2 sequence (P05186 whole entry): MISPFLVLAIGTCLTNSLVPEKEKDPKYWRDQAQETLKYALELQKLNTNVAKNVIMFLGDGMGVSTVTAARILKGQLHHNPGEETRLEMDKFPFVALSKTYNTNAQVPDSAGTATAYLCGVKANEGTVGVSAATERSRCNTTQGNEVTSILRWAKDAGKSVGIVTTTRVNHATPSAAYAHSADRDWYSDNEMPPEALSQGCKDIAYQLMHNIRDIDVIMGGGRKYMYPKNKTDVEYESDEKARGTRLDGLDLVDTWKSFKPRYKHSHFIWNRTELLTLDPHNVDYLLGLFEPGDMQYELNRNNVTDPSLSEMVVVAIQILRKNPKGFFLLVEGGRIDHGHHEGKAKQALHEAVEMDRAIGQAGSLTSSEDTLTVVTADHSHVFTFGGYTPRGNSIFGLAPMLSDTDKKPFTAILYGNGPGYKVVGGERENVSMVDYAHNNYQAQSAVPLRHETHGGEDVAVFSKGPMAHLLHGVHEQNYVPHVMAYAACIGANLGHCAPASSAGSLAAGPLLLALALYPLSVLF

[16] = target: T3, Intestinal-type alkaline phosphatase (Homo sapiens, UniProt P09923); experiment: human IAP activators, dose response, biochemical, luminescent, uHTS hits, set 2 (AID 488817); type: functional;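 further: potency of activators that raise enzyme activity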
T3 sequence (P09923 whole entry): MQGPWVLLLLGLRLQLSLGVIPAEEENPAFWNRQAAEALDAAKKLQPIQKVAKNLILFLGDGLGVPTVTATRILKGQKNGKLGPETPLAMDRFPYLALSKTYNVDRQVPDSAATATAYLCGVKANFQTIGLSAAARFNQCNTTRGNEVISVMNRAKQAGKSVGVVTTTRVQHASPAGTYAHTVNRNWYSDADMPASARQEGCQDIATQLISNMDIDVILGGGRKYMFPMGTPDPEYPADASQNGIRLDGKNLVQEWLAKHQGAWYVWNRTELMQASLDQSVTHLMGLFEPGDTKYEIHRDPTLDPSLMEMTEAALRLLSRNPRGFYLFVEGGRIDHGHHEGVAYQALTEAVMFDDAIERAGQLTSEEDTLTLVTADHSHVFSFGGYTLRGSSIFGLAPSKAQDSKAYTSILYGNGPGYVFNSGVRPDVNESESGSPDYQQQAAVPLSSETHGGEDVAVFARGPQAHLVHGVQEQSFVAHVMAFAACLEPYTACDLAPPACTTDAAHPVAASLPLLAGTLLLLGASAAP

[17] = tested on: INS1; experiment: beta cell apoptosis inhibitors, cytokine rescue, dose response, luminescence, retest (AID 449756); type: functional, cell-based; conditions: Rattus norvegicus;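 further: cell death triggered by IL-1 beta plus TNF-alpha plus IFN-gamma mixture; protective hits raise ATP signal compared with cytokine alone wells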
[18] = target: T1, Mannose-6-phosphate isomerase; experiment: inhibitors of human PMI, primary screen, biochemical, fluorescence intensity, coupled assay (AID 1209)
[19] = target: Intestinal-type alkaline phosphatase (Mus musculus, UniProt P24822); experiment: PubChem AID 488874; type: functional
Sequence of Intestinal-type alkaline phosphatase (Mus musculus, UniProt P24822) (P24822 whole entry): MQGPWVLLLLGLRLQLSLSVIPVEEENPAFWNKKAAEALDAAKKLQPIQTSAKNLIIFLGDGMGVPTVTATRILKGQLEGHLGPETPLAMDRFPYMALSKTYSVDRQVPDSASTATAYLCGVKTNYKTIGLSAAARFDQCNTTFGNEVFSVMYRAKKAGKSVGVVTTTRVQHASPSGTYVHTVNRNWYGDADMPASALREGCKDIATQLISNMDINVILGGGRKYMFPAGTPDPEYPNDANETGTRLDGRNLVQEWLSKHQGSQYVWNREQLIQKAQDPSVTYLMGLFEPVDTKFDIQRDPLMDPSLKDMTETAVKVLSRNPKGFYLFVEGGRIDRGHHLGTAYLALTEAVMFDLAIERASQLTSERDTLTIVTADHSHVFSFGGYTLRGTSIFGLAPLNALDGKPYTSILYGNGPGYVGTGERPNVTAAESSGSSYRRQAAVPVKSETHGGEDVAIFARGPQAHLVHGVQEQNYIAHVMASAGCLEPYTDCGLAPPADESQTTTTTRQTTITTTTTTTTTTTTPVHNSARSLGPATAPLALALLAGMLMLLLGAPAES

[20] = target: T4, Rac GTPase-activating protein 1 (Homo sapiens, UniProt Q9H0H5); experiment: MgcRacGAP GTPase-activating activity inhibitors, confirmation, biochemical, ADP Hunter fluorescence, primary and confirmatory (AID 624330); type: functional
T4 sequence (Q9H0H5 whole entry): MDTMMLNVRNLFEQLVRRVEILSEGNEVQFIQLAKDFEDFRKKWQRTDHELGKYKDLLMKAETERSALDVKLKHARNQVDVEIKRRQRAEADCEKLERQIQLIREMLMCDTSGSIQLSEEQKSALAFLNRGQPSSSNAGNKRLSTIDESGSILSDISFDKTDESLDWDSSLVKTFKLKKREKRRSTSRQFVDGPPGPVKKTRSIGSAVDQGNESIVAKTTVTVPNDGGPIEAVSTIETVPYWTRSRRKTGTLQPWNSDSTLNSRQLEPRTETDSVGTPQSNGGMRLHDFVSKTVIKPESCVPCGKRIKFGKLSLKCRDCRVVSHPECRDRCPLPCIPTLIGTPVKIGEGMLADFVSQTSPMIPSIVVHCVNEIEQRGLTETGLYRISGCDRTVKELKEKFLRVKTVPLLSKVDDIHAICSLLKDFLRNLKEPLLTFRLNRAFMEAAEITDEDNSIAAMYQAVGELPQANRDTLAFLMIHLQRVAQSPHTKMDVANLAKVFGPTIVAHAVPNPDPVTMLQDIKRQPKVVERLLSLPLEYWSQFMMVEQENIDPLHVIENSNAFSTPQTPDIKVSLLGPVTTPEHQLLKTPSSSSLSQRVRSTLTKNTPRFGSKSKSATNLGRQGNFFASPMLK

[21] = cells; type: functional, cell-based
[22] = target: T3, Intestinal-type alkaline phosphatase; experiment: human intestinal alkaline phosphatase activators, dose response, biochemical, luminescence, uHTS hits (AID 463120); type: functional
[23] = target: FAD-linked sulfhydryl oxidase ALR (Homo sapiens, UniProt P55789); experiment: inhibitors of human ALR sulfhydryl oxidase, dose response, biochemical, H2O2 detection, luminescence, cherry-pick (AID 493248)
Sequence of FAD-linked sulfhydryl oxidase ALR (P55789 whole entry): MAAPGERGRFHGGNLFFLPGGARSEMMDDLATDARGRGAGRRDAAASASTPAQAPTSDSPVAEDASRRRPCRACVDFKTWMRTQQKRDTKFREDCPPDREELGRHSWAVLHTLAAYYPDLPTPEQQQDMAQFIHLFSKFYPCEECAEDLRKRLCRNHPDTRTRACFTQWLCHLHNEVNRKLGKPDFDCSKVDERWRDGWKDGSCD

[24] = cells; type: functional, cell-based; remark: listed apart in the source
[25] = target: Genome polyprotein (Hepatitis C virus, UniProt Q2Q167); experiment: HCV core protein dimerization inhibitors, dose response, biochemical, TR-FRET (AID 2159); parameters: species or system Hepacivirus hominis;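 further: blocks dimerization of HCV core protein measured by TR-FRET between tagged core106 pairs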
Sequence of Genome polyprotein (Q2Q167 whole entry, the tested form may be a part): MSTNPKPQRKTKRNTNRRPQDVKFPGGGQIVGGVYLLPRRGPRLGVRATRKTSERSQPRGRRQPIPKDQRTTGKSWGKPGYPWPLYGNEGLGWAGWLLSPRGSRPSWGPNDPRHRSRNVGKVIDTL

[26] = target: T5, Oxysterols receptor LXR-beta (Homo sapiens, UniProt P55055); experiment: LXR agonists, Gal4 luciferase reporter, dose response, counter-screen for ssDAF-12 agonist project, cell-based, luminescence, HEK293, S. stercoralis campaign (AID 720737); type: functional; conditions: read-out: IC50 (the source's name)
T5 sequence (P55055 whole entry): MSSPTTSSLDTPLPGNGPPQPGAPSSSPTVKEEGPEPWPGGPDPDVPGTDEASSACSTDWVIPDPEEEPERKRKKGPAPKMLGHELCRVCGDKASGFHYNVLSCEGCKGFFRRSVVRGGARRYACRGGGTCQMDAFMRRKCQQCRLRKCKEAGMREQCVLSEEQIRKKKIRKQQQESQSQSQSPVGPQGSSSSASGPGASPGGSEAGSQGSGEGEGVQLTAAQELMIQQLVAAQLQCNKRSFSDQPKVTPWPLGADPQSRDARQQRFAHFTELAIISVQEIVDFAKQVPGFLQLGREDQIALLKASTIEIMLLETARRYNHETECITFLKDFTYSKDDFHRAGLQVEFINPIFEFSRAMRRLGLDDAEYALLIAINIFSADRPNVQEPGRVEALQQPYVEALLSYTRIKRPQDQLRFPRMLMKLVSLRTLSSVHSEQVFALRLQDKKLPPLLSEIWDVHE

[27] = Luminescence-based cell-based high throughput dose response assay to identify activators of the DAF-12 from the parasite S. stercoralis (ssDAF-12).; type: functional
[28] = target: T6, Protein Tat (Human immunodeficiency virus type 1 group M subtype B (isolate HXB2)(HIV-1), UniProt P04608); type: functional;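 further: tat binding to TAR RNA read out by fluorescence polarization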
T6 sequence (P04608 whole entry): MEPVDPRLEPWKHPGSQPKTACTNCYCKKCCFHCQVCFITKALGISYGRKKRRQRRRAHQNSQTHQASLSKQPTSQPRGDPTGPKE

[29] = target: Mu-type opioid receptor (Homo sapiens, UniProt P35372); type: functional, cell-based;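 further: U2OS cells with beta-arrestin recruitment to OPRM1 by beta-gal complementation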
Sequence of Mu-type opioid receptor (P35372 whole entry): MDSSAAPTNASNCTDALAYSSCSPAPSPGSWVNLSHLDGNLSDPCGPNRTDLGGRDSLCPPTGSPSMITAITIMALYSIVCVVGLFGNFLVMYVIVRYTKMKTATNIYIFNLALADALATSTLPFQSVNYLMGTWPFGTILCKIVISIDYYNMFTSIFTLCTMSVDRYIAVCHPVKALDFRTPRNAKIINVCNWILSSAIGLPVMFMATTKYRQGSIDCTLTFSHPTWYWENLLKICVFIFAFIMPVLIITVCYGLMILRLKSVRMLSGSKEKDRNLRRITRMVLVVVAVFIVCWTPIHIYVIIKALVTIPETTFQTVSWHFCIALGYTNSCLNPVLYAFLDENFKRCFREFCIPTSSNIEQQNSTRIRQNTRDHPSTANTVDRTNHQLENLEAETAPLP

[30] = microbe, parasite or virus in culture; type: functional; conditions: Mycobacterium tuberculosis
[31] = target: 5-hydroxytryptamine receptor 2A (Mus musculus, UniProt P35363); type: functional, cell-based;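 further: CHO-K1 cells with tagged receptor and beta-arrestin; agonist potency measured as compound-induced activation of the receptor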
Sequence of 5-hydroxytryptamine receptor 2A (P35363 whole entry): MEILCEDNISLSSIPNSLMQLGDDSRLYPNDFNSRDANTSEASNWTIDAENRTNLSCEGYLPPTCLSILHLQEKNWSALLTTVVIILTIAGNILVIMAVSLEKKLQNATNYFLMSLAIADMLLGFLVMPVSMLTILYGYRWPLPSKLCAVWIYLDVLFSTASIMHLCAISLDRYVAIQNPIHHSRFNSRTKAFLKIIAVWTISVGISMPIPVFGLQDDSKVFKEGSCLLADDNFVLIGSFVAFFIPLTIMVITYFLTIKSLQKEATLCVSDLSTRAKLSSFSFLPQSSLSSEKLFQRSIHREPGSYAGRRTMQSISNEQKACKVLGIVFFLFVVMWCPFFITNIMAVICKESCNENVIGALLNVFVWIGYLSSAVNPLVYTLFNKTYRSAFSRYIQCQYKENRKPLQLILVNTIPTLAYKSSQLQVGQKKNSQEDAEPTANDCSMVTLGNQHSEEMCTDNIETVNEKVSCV

[32] = M. tuberculosis growth inhibition, HTS (AID 449762); type: functional
[33] = P. falciparum ATP4 D1247Y mutant growth inhibitors, dose response, NITD609-resistant line, SYBR Green, dry powder (AID 1159571); type: functional, cell-based;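 further: parasites synchronized at ring stage by sorbitol before testing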
[34] = HepG2 cell cytotoxicity, dose response, cytotoxicity control, plate reader, dry powder samples (AID 1159569); type: functional, cell-based;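 further: inhibitor potency with signal falling toward the positive control level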
[35] = P. falciparum Dd2 growth inhibitors, dose response, SYBR Green, dry powder samples (AID 1159566); type: functional, cell-based;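 further: potency for growth inhibition with lower SYBR green DNA signal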
[36] = P. falciparum 3D7-ScDHODH growth inhibitors, dose response, SYBR Green, dry powder samples (AID 1159570); type: functional, cell-based;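 further: parasite growth measured after 72 hours of compound exposure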
[37] = P. falciparum Dd2 growth inhibitors, dose response, SYBR Green, cherry-picked samples (AID 1159567); type: functional, cell-based
[38] = target: T7, Carboxy-terminal domain RNA polymerase II polypeptide A small phosphatase 1 (Homo sapiens, UniProt Q9GZU7); experiment: inhibitors of CTDSP1, concentration-response testing, biochemical assay, absorbance-based, actives from ultra-high-throughput screening (AID 540297); type: functional
T7 sequence (Q9GZU7 whole entry): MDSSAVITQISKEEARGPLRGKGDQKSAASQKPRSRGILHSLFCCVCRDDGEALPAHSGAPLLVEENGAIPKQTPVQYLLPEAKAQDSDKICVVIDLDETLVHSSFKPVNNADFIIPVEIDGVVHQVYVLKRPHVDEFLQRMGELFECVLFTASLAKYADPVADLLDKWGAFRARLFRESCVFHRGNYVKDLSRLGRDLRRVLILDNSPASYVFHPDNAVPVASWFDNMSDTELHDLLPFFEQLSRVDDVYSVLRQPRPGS

[39] = target: Induced myeloid leukemia cell differentiation protein Mcl-1 (Homo sapiens, UniProt Q07820); type: functional
Sequence of Induced myeloid leukemia cell differentiation protein Mcl-1 (Q07820 whole entry): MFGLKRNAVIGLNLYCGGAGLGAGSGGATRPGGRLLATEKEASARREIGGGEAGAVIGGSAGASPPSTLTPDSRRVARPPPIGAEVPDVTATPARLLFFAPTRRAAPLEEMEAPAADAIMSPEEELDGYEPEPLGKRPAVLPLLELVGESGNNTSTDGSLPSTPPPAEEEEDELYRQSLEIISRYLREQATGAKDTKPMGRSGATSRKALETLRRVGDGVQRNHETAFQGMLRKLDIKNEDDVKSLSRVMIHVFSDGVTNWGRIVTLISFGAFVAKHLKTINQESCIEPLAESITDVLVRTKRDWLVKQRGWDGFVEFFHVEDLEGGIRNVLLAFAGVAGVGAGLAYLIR

C[C@@H]1CN([C@@H](C)CO)C(=O)Cc2cc(NC(=O)Nc3ccc4c(c3)OCO4)ccc2O[C@H]1CN(C)Cc1ccc2c(c1)OCO2
AC50 [1]: > 39 µM (inactive)

CN(C)CCCCCN(C)Cc1cc2ccccc2o1
EC50 [2]: < 0.1 µM (active) | EC50 [3]: 0.025 µM (active) | EC50 [4]: 16.4 µM (active)

Cc1ccc(-c2cc(C(F)F)n3ncc(C(=O)Nc4c(C)nn(Cc5c(Cl)cccc5Cl)c4C)c3n2)cc1
AC50 [5]: 7.94 µM (inconclusive) | AC50 [6]: inconclusive | CC50 [7]: > 100 µM (active)

O=C(CCN1CCN(c2ccccc2F)CC1)c1ccc(Br)cc1
IC50 [8]: 38.2 µM (active) | EC50 [9]: 8.84 µM (active) | EC50 [10]: 7.29 µM (active)

CC(C)CNC(=O)c1cccc(NC(=O)COc2ccc([N+](=O)[O-])cc2)c1
IC50 [11]: > 83.3 µM (inactive) | IC50 [12]: > 109 µM (inactive)

Cc1ccc(-n2c(Cc3cccn3C)nnc2SCC(=O)Nc2nnc(C)s2)cc1
IC50 [13]: > 100 µM (active)

Nc1ccc(Br)c2c1C(=O)c1ccccc1C2=O
IC50 [14]: 13.5 µM (active)

CCn1c(C)nc2cc(C(=O)N/N=C/c3cccc(O)c3O)ccc21
IC50 [8]: > 50 µM (not active) | EC50 [15]: 11 µM (active) | EC50 [16]: 9.71 µM (active) | AC50 [17]: 2.79 µM (active) | IC50 [18]: > 50 µM (not active) | IC50 [19]: 44 µM (active) | IC50 [20]: 119 µM (active) | EC50 [21]: > 350 µM (not active) | EC50 [22]: 6.34 µM (active) | AC50 [23]: 3.82 µM (active) | EC50 [24]: 10.9 µM (active)

Cc1cc(C(=O)N/N=C2\CC(=O)c3ccccc32)c(C)n1-c1ccc(F)cc1
IC50 [25]: > 49.8 µM (not active)

COc1ccc(NC(=O)c2cc3ccccc3cc2OC)cc1
EC50 [26]: > 67.5 µM (inactive) | IC50 [27]: > 67.5 µM (inactive)

CCOc1ccc(-n2c(Cc3cc(O)nc(O)n3)nnc2SCC(N)=O)cc1
IC50 [28]: > 100 µM (active) | IC50 [13]: > 100 µM (active)

CC(C)C[C@H]1C(=O)N2CCC[C@H]2[C@]2(O)O[C@](NC(=O)C3C=C4c5cccc6[nH]c(Br)c(c56)C[C@H]4N(C)C3)(C(C)C)C(=O)N12 (stereo partly drawn)
EC50 [29]: 92.5 µM (inactive) | CC50 [30]: > 40 µM (active) | EC50 [31]: 0.0038 µM (active) | IC50 [32]: > 100 µM (active)

C[C@@H]1CN([C@@H](C)CO)C(=O)c2c(c3ccccc3n2C)-c2ccccc2CO[C@@H]1CN(C)C(=O)Nc1ccc(-c2ccccc2)cc1
AC50 [33]: 1.46 µM (active) | AC50 [34]: > 100 µM (inactive) | AC50 [35]: 1.48 µM (active) | AC50 [36]: 2.36 µM (active) | AC50 [1]: > 42 µM (inactive) | AC50 [37]: 1.93 µM (active)

Cc1cc(C)n2c(SC/C(O)=C(\C#N)c3nc4ccccc4[nH]3)nnc2n1
IC50 [25]: > 49.8 µM (not active) | IC50 [38]: 5.01 µM (active) | IC50 [39]: 1.15 µM (active)
